Test [1] has as its system guinea pigs. Kind of test: Local anesthetic activity in guinea pigs (method of Bulbring and Waida), intracutaneous injection. Format: in vivo. The method, then: 1. Local anesthetic activity
The local anesthetic activity of each of the compounds was determined in accordance with the method of Bulbring E. and Waida, Journal Pharmacol. Exp. Ther., 85, 78 (1945).

The test system of test [2] is mice. Kind of test: Anti-arrhythmic activity in mice (method of Lawson), intraperitoneal injection. Format: in vivo. As to conditions: Mus musculus, ip. The procedure: 2. Anti-arrhythmic activity
The anti-arrhythmic activity of each of the compounds was determined in accordance with the method of J. W. Lawson, Journal Pharmacol. Exp. Ther., 160, 22 (1967).

As a reminder, the ED50 is the dose at which the effect has come halfway, by size or by number of responders. Take `CCN(CC)CCC(=O)Nc1c(C)cccc1C(C)=O`: in test [1], the “Local anesthetic activity in guinea pigs ED50 intracutaneous injection” value (from here on “Local anesthetic activity”) is recorded as 0.33 W/V %. The same compound registered an ED50 in test [2] of 50 mg/kg.
On the same counts, the results for `CCN(CC)CC(=O)Nc1cccc(C(C)=O)c1` are 1.0 W/V % and 180 mg/kg.
For `CCN(CC)CCC(=O)Nc1cc(C(C)=O)ccc1C`, the “Local anesthetic activity” value in test [1] was 1.48 W/V %. It took a dose of 97 mg/kg to reach the 50% effect level in test [2] (ED50).
On the same counts, the results for `CCN(CC)CC(=O)Nc1ccc(C(C)=O)cc1` are 1.0 W/V % and 250 mg/kg.
As to `CCCC(=O)c1cccc(C)c1NC(=O)CCN(CC)CC`, the “Local anesthetic activity” value in test [1] turned out to be 0.09 W/V %. The compound also returned an ED50 in test [2] of 25 mg/kg.
Taken in the same sequence, the figures for `CCN(CC)CC(=O)Nc1c(C)cccc1C(C)=O` were 0.12 W/V % and 80 mg/kg.

Source of the values: patent publication US4032573A, “Ortho-acylated anilide derivatives and salts thereof” (Sumitomo Chemical Company, Limited, priority 1976, dated 1977).
